Test results from US20240307575A1, “METHODS FOR […] MATTER” (priority 2021, published 2024).
Where “and” joins values, the source holds several entries; their conditions need not be identical. Identical values can stand only once. Like-named read-outs stand apart in the source and are kept apart here.

What was measured:
Yeast & Molds = assay: Example 4: yeast and molds count after NaDCC and/or H2O2 pulses; format: cell-based; settings: control 152,000
Procedure: (§1) Aqueous solutions of NaDCC at variating concentrations from 1% [w/w] up to 5% [w/w] were prepared. […] Table 5 describes various sterilants and their effects:
(§2) Each pulse with disinfectant consisted of vacuum to 1 mbar, then introduction of a sterilant to 100 mbar, 6 minutes of keeping the sterilant at that pressure, introduction of air to 500 mbar, then vacuum.

Total pathogen = assay: Example 4: total pathogen count after NaDCC and/or H2O2 pulses; format: cell-based; settings: for Total pathogen Count: control 490,000; for Fold-Reduction: versus control
Procedure: as §1, §2

total count [1] = assay: Example 2, Table 3: total count after hydrogen peroxide pulses with air or ozone, with or without ozone preheat; format: cell-based; settings: HPO to 75 mbar + air to 500 mbar 40° C. one pulse, control 130,000
Procedure: (§3) In table 3, the samples were all preheated to, 40° C. Some of the samples, indicated “O3 preheat” were preheated in the presence of ozone at atmospheric pressure. […] Air was subsequently introduced to a pressure of 500 mbar. Then the chamber was evacuated.

yeasts & molds = assay: Example 2, Table 3: yeast and mold count after hydrogen peroxide pulses with air or ozone, with or without ozone preheat; format: cell-based; settings: HPO to 75 mbar + air to 500 mbar 40° C. one pulse, control 1,950
Procedure: as §3

Yeast & Mold = settings: for Yeast & Mold: HPO to 60 mbar 6 minutes, air 500 mbar 6 minutes, 40°, control 1,150,000; for Yeast & Mold Fold-Reduction: versus control
Procedure: (§4) For two of the samples, no preheating was performed, and for two of the samples, preheating was performed. Preheating involved warming the plant matter in the chamber at 40° C. for 5 minutes. Either one or two pulses of sterilant were performed. All pulses were performed at 40°. Before each pulse, the pressure in the chamber was reduced to 1 mbar.
(§5) Then, air was added and pressure was maintained at 500 mbar for 6 minutes.

total count [2] = settings: for Total Count: HPO to 60 mbar 6 minutes, air 500 mbar 6 minutes, 40°, control 1,350,000; for Total Count Fold-Reduction: versus control
Procedure: as §4, §5

total count [3] = settings: hydrogen peroxide solution 50% in water, control 208,800
Procedure: (§6) A control sample was used, which was not treated, to show microbial load before treatment.
(§7) In each of the trials above, the H2O2 solution was introduced over a period of 3 minutes until a pressure of 70-100 mbar, by introduction of 4 injections, each injection of 10 ml. […] Some of the batches indicating “vent 700” were slowly vented to 700 mbar with air.

yeast and mold = settings: hydrogen peroxide solution 50% in water, 40° C. 40 ml + 1 m; control 20,800; listed as H2O2
Procedure: as §6, §7

Microbe mix (all 4) = settings: 15% [w/w] hydrogen peroxide vapor, mean of batches 1-3
Procedure: (§8) In this example, cannabis inflorescence (200 mg) was thoroughly sterilized, then inoculated by soaking in 30 ml of microbial suspension, using each of the microbes in the amounts described in table 7 below, including a microbe mix, consisting of a mixture of all 4 microbes in the table.
(§9) After soaking each sample of inflorescence in the respective microbial suspension, each sample was air dried in a laminar flow dryer overnight for 18 hours and refrigerated until sterilization was initiated. Inflorescence was sterilized 24, 48 and 72 hours post inoculation, designated batch 1, batch 2 and batch 3, respectively. Microbial load analysis was performed after each sterilization day. Samples were also inoculated, and not sterilized, to serve as controls. A saline solution was applied to some of the samples instead of a microbial suspension, to serve as a control.
(§10) Analysis of microbial count was performed to samples before and after sterilization, and each microbe count was determined using sub-samples of […] each from each sample, and was performed in triplicate. The sub-samples were ground in 20 ml of saline solution, seeded in a petri dish with agar, which were then incubated at 37° C. for 48 hours, for counting of colonies, to determine number of colony forming units (CFU) per cannabis sample. Logarithmic reduction of pathogen as compared to non-sterilized sample was determined.
(§11) Samples of cannabis inflorescence (200 mg) were introduced into a vacuum chamber in either a top tray or a middle tray. The top tray was located in the uppermost location in the chamber, where the highest temperature is measured. The temperature was set to be maintained at 50° C., however, due to the fact that heat rises within the chamber, and that sterilant solution was introduced to the chamber as a vapor having a temperature of about 140-150° C., in some of the experiments the temperature in the uppermost chamber reached 54° C.±1° C. and in some 58° C.±2° C. Two or three pulses of disinfection were performed for each sample, and the results are described in Table 8. In each pulse, pressure was reduced to 3±2 mbar. […] Then, air was added and pressure was maintained at 500 mbar for 6 minutes at that pressure. The air was then removed from the chamber and the pressure reduced to 3±2 mbar. This process constitutes one pulse. One or two additional pulses were performed for samples, for a total of two pulses per sample, or three pulses per sample. In the final pulse, after initiating a vacuum, air was then introduced and the chamber was […] to a pressure of 1 atmosphere.
(§12) For each pathogen, mean log reduction was calculated by log10 transformation of CFU values, analyzing each microbial treatment process separately. Sterilization processes were compared with a 1-way ANOVA on log transformed data.

Aspergillus brasiliensis = settings: for mean log reduction: 15% [w/w] hydrogen peroxide vapor, mean of batches 1-3
Procedure: as §8, §9, §10, §11, §12

Pseudomonas aeruginosa = settings: 15% [w/w] hydrogen peroxide vapor, mean of batches 1-3
Procedure: as §8, §9, §10, §11, §12

Candida albicans = settings: for mean log reduction: 15% [w/w] hydrogen peroxide vapor, mean of batches 1-3
Procedure: as §8, §9, §10, §11, §12

E. Coli = settings: 15% [w/w] hydrogen peroxide vapor, mean of batches 1-3
Procedure: as §8, §9, §10, §11, §12

[4] = Preheat (40° C. for 5 minutes), one pulse
[5] = Preheat (40° C. for 5 minutes), two pulses

For `O=c1nc([O-])n(Cl)c(=O)n1Cl.[Na+]` [NaDCC, Sodium dichloroisocyanurate], which “Yeast & Molds Count” value (Yeast & Molds; NaDCC 1% [w/w], 1 pulse) is on record?
The value was 10,857.

What about the “Yeast & Molds Count” value (Yeast & Molds; NaDCC 1% [w/w], 2 pulses) of the same compound?
The value was 5,553.

What about the “Yeast & Molds Count” value (Yeast & Molds; NaDCC 2% [w/w], 1 pulse) of the same compound?
Its value is 7,600.

And the “Yeast & Molds Count” value (Yeast & Molds; NaDCC 2% [w/w], 2 pulses)?
The value was 3,436.

What about the “Yeast & Molds Count” value (Yeast & Molds; NaDCC 5% [w/w], 1pulse) of the same compound?
Its value is 10,133.

What about the “Yeast & Molds Count” value (Yeast & Molds; NaDCC 5% [w/w], 2 pulses) of the same compound?
The value was 12,667.

And the “Total pathogen Count” value (Total pathogen; NaDCC 1% [w/w], 1 pulse)?
The value was 35,100.

And the Fold-Reduction (Total pathogen; NaDCC 1% [w/w], 1 pulse)?
The Fold-Reduction was 14.

And the “Total pathogen Count” value (Total pathogen; NaDCC 1% [w/w], 2 pulses)?
Its value is 17,900.

What about the Fold-Reduction (Total pathogen; NaDCC 1% [w/w], 2 pulses) of the same compound?
The Fold-Reduction was 27.

And the “Total pathogen Count” value (Total pathogen; NaDCC 2% [w/w], 1 pulse)?
The value was 24,500.

What about the Fold-Reduction (Total pathogen; NaDCC 2% [w/w], 1 pulse) of the same compound?
Its Fold-Reduction is 20.

And the “Total pathogen Count” value (Total pathogen; NaDCC 2% [w/w], 2 pulses)?
The value was 11,075.

What about the Fold-Reduction (Total pathogen; NaDCC 2% [w/w], 2 pulses) of the same compound?
The Fold-Reduction was 44.

What about the “Total pathogen Count” value (Total pathogen; NaDCC 5% [w/w], 1pulse) of the same compound?
Its value is 32,667.

And the Fold-Reduction (Total pathogen; NaDCC 5% [w/w], 1pulse)?
The Fold-Reduction was 15.

And the “Total pathogen Count” value (Total pathogen; NaDCC 5% [w/w], 2 pulses)?
Its value is 40,833.

What about the Fold-Reduction (Total pathogen; NaDCC 5% [w/w], 2 pulses) of the same compound?
The Fold-Reduction was 12.

With `OO` [hydrogen peroxide] as the compound, how does the TC (total count [1]; sample weight 100 gr) read?
Its TC is 11,000 cfu/ml.

What about the TC (total count [1]; sample weight 300 gr) of the same compound?
The TC was 48,000 cfu/ml.

What about the “Y&M” value (yeasts & molds; sample weight 100 gr) of the same compound?
Its value is 100 cfu/ml.

And the “Y&M” value (yeasts & molds; sample weight 300 gr)?
The value was 30 cfu/ml.

And the “Yeast & Molds Count” value (Yeast & Molds; 50% H2O2, 2 pulses)?
The value was 2,492.

What about the “Yeast & Mold” value (Yeast & Mold; No preheat, one pulse) of the same compound?
The value was 19,828 cfu/ml.

And the “Yeast & Mold Fold-Reduction” value (Yeast & Mold; No preheat, one pulse)?
The value was 58.

And the “Yeast & Mold” value (Yeast & Mold; No preheat, two pulses)?
Its value is 3,249 cfu/ml.

What about the “Yeast & Mold Fold-Reduction” value (Yeast & Mold; No preheat, two pulses) of the same compound?
Its value is 354.

What about the “Yeast & Mold” value (Yeast & Mold; [4]) of the same compound?
The value was 3,433 cfu/ml.

What about the “Yeast & Mold” value (Yeast & Mold; [5]) of the same compound?
Its value is 415 cfu/ml.

And the “Yeast & Mold Fold-Reduction” value (Yeast & Mold; Preheat, one pulse)?
Its value is 335.

And the “Yeast & Mold Fold-Reduction” value (Yeast & Mold; Preheat, two pulses)?
The value was 2,770.

What about the “Total Count” value (total count [2]; No preheat, one pulse) of the same compound?
Its value is 5,556 cfu/ml.

And the “Total Count Fold-Reduction” value (total count [2]; No preheat, one pulse)?
The value was 243.

And the “Total Count” value (total count [2]; No preheat, two pulses)?
The value was 3,082 cfu/ml.

What about the “Total Count Fold-Reduction” value (total count [2]; No preheat, two pulses) of the same compound?
Its value is 438.

What about the “Total Count” value (total count [2]; [4]) of the same compound?
The value was 2,316 cfu/ml.

And the “Total Count” value (total count [2]; [5])?
The value was 1,028 cfu/ml.

And the “Total Count Fold-Reduction” value (total count [2]; Preheat, one pulse)?
Its value is 583.

What about the “Total Count Fold-Reduction” value (total count [2]; Preheat, two pulses) of the same compound?
Its value is 1,313.

And the “decontamination, reduction of microbes” value (total count [2]; pre-heating stage and two sterilant pulses combined)?
Its value is “over 3 orders of magnitude”.

What about the “Total pathogen Count” value (Total pathogen; 50% H2O2, 2 pulses) of the same compound?
The value was 8,033.

And the Fold-Reduction (Total pathogen; 50% H2O2, 2 pulses)?
The Fold-Reduction was 61.

And the TC (total count [3]; 30° C. 40 ml, 200 g inflorescence)?
The TC was 31,000 cfu/ml.

What about the TC (total count [3]; 40° C. 40 ml + 1 m + Vent700, listed as H2O2) of the same compound?
The TC was 12,000 cfu/ml and 19,000 cfu/ml.

What about the TC (total count [3]; 40° C. 40 ml, listed as H2O2) of the same compound?
The TC was 15,000 cfu/ml and 10,000 cfu/ml.

What about the “Y&M” value (yeast and mold) of the same compound?
Its value is 2,600 cfu/ml and 2,500 cfu/ml.

What about the mean log reduction (Microbe mix (all 4); 2 pulses, Middle tray) of the same compound?
The mean log reduction was 2.8.

What about the mean log reduction (Microbe mix (all 4); 2 pulses, Top tray) of the same compound?
Its mean log reduction is 5.5.

What about the mean log reduction (Microbe mix (all 4); 3 pulses, Middle tray) of the same compound?
The mean log reduction was 5.1.

What about the mean log reduction (Microbe mix (all 4); 3 pulses, Top tray) of the same compound?
The mean log reduction was 7.0.

And the mean log reduction (Aspergillus brasiliensis; 2 pulses, Middle tray)?
Its mean log reduction is 2.0.

And the mean log reduction (Aspergillus brasiliensis; 2 pulses, Top tray)?
Its mean log reduction is 3.3.

What about the mean log reduction (Aspergillus brasiliensis; 3 pulses, Middle tray) of the same compound?
The mean log reduction was 2.2.

And the mean log reduction (Aspergillus brasiliensis; 3 pulses, Top tray)?
Its mean log reduction is 3.3.

And the “reduction in microbial count after treatment” value (Aspergillus brasiliensis; sterilized at 24 hours post inoculation)?
Its value is 5 log.

And the mean log reduction (Pseudomonas aeruginosa; 2 pulses, Middle tray)?
The mean log reduction was 3.7.

What about the mean log reduction (Pseudomonas aeruginosa; 2 pulses, Top tray) of the same compound?
Its mean log reduction is 5.3.

And the mean log reduction (Pseudomonas aeruginosa; 3 pulses, Middle tray)?
Its mean log reduction is 4.7.

What about the mean log reduction (Pseudomonas aeruginosa; 3 pulses, Top tray) of the same compound?
Its mean log reduction is 7.2.

And the mean log reduction (Candida albicans; 2 pulses, Middle tray)?
The mean log reduction was 2.8.

And the mean log reduction (Candida albicans; 2 pulses, Top tray)?
Its mean log reduction is 6.3.

And the mean log reduction (Candida albicans; 3 pulses, Middle tray)?
Its mean log reduction is 6.0.

And the mean log reduction (Candida albicans; 3 pulses, Top tray)?
Its mean log reduction is 6.3.

And the “reduction in microbial count” value (Candida albicans; top tray, both 2 and 3 pulses)?
Its value is no less than 6 fold.

What about the mean log reduction (E. Coli; 2 pulses, Middle tray) of the same compound?
The mean log reduction was 3.5.

And the mean log reduction (E. Coli; 2 pulses, Top tray)?
The mean log reduction was 3.5.

What about the mean log reduction (E. Coli; 3 pulses, Middle tray) of the same compound?
Its mean log reduction is 4.3.

What about the mean log reduction (E. Coli; 3 pulses, Top tray) of the same compound?
The mean log reduction was 4.8.
